Where “and” joins values, the source holds several entries; their conditions need not be identical. Equal values may be shown once.
What was measured:
[1] = molecular target: Glycogen synthase kinase-3 alpha (Homo sapiens, UniProt P49840); assay: TR-FRET Assay
Method in brief: (§1)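 30 min preinc w/ cpd in assay buffer → kinase rxn → EDTA quench → add detection mix (40 nM SA-d2, 2 nM Tb-pSer641 Ab) → TR-FRET read.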

[2] = molecular target: Glycogen synthase kinase-3 beta (Homo sapiens, UniProt P49841); assay: TR-FRET Assay
Method in brief: as §1

Chain of Glycogen synthase kinase-3 alpha (P49840 whole entry): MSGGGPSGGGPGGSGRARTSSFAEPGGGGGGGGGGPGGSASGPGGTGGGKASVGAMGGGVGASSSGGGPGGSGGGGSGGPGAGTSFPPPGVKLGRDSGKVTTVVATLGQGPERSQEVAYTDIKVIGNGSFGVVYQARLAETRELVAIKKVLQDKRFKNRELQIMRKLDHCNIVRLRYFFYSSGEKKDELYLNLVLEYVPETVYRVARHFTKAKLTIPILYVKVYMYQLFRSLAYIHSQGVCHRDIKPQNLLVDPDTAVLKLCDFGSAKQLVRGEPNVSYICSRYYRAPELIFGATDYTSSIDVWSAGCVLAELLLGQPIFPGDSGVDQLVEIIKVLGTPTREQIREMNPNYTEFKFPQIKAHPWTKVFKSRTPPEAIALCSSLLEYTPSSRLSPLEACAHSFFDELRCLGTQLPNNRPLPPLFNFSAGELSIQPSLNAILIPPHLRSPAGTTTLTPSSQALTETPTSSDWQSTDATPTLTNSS
Chain of Glycogen synthase kinase-3 beta (P49841 whole entry): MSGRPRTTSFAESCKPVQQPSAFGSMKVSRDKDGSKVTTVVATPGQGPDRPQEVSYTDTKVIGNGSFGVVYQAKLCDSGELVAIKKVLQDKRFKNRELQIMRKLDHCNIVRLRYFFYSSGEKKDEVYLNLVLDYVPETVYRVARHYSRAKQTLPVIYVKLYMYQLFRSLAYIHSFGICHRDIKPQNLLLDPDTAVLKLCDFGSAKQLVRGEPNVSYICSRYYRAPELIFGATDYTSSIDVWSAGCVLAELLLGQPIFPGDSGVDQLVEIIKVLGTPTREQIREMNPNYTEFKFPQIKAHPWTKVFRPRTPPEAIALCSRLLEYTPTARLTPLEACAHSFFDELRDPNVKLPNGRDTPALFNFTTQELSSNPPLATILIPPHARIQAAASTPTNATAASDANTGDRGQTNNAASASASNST

| IC50 [1] | IC50 [2] | SMILES |
| --- | --- | --- |
| < 0.1 µM | < 0.1 µM | CC[C@@]1(c2cccc(S(C)(=O)=O)c2)C2=CN=NC2NC2=C1C(=O)NC(C)(C)C2 (some centres undefined) [US20250313563, Compound 945604] |
| 0.1 to 1 µM | 1 to 5 µM | CC1(C)CC(=O)C2=C(C1)NC1=C(CN=N1)[C@]21CC[C@@H](c2ccncc2)CC1 [US20250313563, Compound 949320] |
| 0.1 to 1 µM | 0.1 to 1 µM | CC1(C)CC(=O)C2=C(C1)NC1=C(C(C3CC3)N=N1)C21CN(S(=O)(=O)CC2CC2)C1 (centres undefined) [US20250313563, Compound 109152] |
| < 0.1 µM | 0.1 to 1 µM | CC1(C)CC(=O)C2=C(C1)NC1=C(CN=N1)[C@]21CCc2c(F)cccc21 [US20250313563, Compound 806633] |
| < 0.1 µM | < 0.1 µM | CCC1(c2cccc(N(C)c3ccnc(C(F)(F)F)c3)c2)C2=CN=NC2NC2=C1C(=O)CC(C)(C)C2 (centres undefined) [US20250313563, Compound 913254] |
| < 0.1 µM | < 0.1 µM and 0.1 to 1 µM | CC[C@@]1(c2cccc(-c3cn(C)nc3C)c2)C2=C(CC(C)(C)NC2=O)NC2N=NC(C)=C21 (some centres undefined) [US20250313563, Compound 946001] |
| < 0.1 µM | < 0.1 µM | CCC1(c2cccc(-c3cc(C)ncc3F)c2)C2=CN=NC2NC2=C1C(=O)CC(C)(C)C2 (centres undefined) [US20250313563, Compound 917132] |
| < 0.1 µM and 0.1 to 1 µM | < 0.1 µM and 1 to 5 µM | CC[C@]1(c2cccc(-c3c(C#N)cnn3C)c2)C2=C(CC(C)(C)NC2=O)NC2N=NC(C)=C21 (some centres undefined) [US20250313563, Compound 952410] |
| > 1.67 µM | > 5 µM | CC[C@]1(c2cccc(C)c2)C2=CN=NC2NC2=C1C(=O)CC1(CCCC1)C2 (some centres undefined) [US20250313563, Compound 801313] |
| 0.1 to 1 µM | 0.1 to 1 µM | CC[C@]1(c2cccc(N3CCOCC3)c2)C2=C(CC(C)(C)NC2=O)NC2N=NC(C(F)(F)F)=C21 (some centres undefined) [US20250313563, Compound 949000] |
| < 0.1 µM and 0.1 to 1 µM | < 0.1 µM and 0.1 to 1 µM | CC1(C)CC(=O)C2=C(C1)NC1=C(CN=N1)[C@]21COC2(CN(C(=O)[C@H]3CC3(F)F)C2)C1 [US20250313563, Compound 948215] |
| < 0.1 µM | < 0.1 µM | CCC1(c2cccc(S(=O)(=O)C(C)C)c2)C2=C(CC(C)(C)NC2=O)NC2N=NC(C)=C21 (centres undefined) [US20250313563, Compound 947396] |
| 1 to 5 µM | > 5 µM | CC[C@@]1(c2cccc(-c3cnn(C4CC4)c3)c2)C2=CN=NC2NC2=C1C(=O)CC(C)(C)C2 (some centres undefined) [US20250313563, Compound 913041] |
| 0.1 to 1 µM | 1 to 5 µM | CC[C@@]1(c2cccc(-c3cnn(CC4CCOC4)c3)c2)C2=CN=NC2NC2=C1C(=O)NC(C)(C)C2 (some centres undefined) [US20250313563, Compound 951836] |
| 0.1 to 1 µM | 1 to 5 µM | CC[C@]1(c2cccc(OC)c2)C2=C(CC(C)(C)CC2=O)NC2N=NC(C(F)(F)F)=C21 (some centres undefined) [US20250313563, Compound 884118] |
| < 0.1 µM | < 0.1 µM and 0.1 to 1 µM | CC[C@@]1(c2cccc(N(C)c3ncccn3)c2)C2=C(CC(C)(C)NC2=O)NC2N=NC(C(F)F)=C21 (some centres undefined) [US20250313563, Compound 951740] |
| < 0.1 µM and 1 to 5 µM | > 5 µM | CC[C@@]1(c2cccc(C3CC3)c2)C2=CN=NC2NC2=C1C(=O)NC(C)(C)C2 (some centres undefined) [US20250313563, Compound 950828] |
| < 0.1 µM and 0.1 to 1 µM | < 0.1 µM and 0.1 to 1 µM | CCC1(c2cccc(C(F)(F)F)c2)C2=C(NC3=NN=CC31)c1ccccc1C2=O (centres undefined) [US20250313563, Compound 948205] |
| < 0.1 µM | 0.1 to 1 µM | CCC1(c2cccc(-c3ccncc3)c2)C2=CN=NC2NC2=C1C(=O)CC(C)(C)C2 (centres undefined) [US20250313563, Compound 791271] |
| > 1.67 µM | > 5 µM | CC1(C)CC(=O)C2=C(C1)NC1N=NC=C1[C@@]21CCc2c(F)cccc21 (some centres undefined) [US20250313563, Compound 806632] |
| < 0.1 µM | < 0.1 µM | CC[C@@]1(c2cccc(-c3c(C)nn(C)c3C)c2)C2=C(CC(C)(C)NC2=O)NC2N=NC(C(F)(F)F)=C21 (some centres undefined) [US20250313563, Compound 948421] |
| 1 to 5 µM | > 5 µM | CC[C@]1(c2cccc(-c3ccnc4c3CCC4)c2)C2=CN=NC2NC2=C1C(=O)CC(C)(C)C2 (some centres undefined) [US20250313563, Compound 945619] |
| < 0.1 µM | < 0.1 µM | CC1(C)CC(=O)C2=C(C1)NC1=C(CN=N1)C21CN(S(=O)(=O)CC2CC2)C1 [US20250313563, Compound 929440] |
| < 0.1 µM | < 0.1 µM | COc1ccc(S(=O)(=O)N2CCC3(CC2)C2=C(N=NC2)NC2=C3C(=O)CC(C)(C)C2)cc1F [US20250313563, Compound 947478] |
| < 0.1 µM | < 0.1 µM | CC[C@@]1(c2cccc(-c3ccnc(N(C)C)c3)c2)C2=C(CC(C)(C)CC2=O)NC2N=NC(C)=C21 (some centres undefined) [US20250313563, Compound 913021] |
| < 0.1 µM and 0.1 to 1 µM | < 0.1 µM and 0.1 to 1 µM | Cc1ncc(S(=O)(=O)N2CCC3(CC2)C2=C(N=NC2)NC2=C3C(=O)CC(C)(C)C2)o1 [US20250313563, Compound 947611] |

| IC50 [1] | IC50 [2] | SMILES |
| --- | --- | --- |
| < 0.1 µM and 0.1 to 1 µM | < 0.1 µM and 1 to 5 µM | CC[C@@]1(c2cccc(-c3ccnn3C)c2)C2=CN=NC2NC2=C1C(=O)N[C@@]1(CCCOC1)C2 (some centres undefined) [US20250313563, Compound 949115] |
| < 0.1 µM | 0.1 to 1 µM | CCC1(c2cccc(C3CCOCC3)c2)C2=CN=NC2NC2=C1C(=O)CC(C)(C)C2 (centres undefined) [US20250313563, Compound 791273] |
| > 5 µM | > 5 µM | CC[C@]1(c2cccc(CN(C)c3cc(C)cc(C)n3)c2)C2=CN=NC2NC2=C1C(=O)CC(C)(C)C2 (some centres undefined) [US20250313563, Compound 945615] |
| < 0.1 µM | < 0.1 µM | CC[C@]1(c2cccc(N3CCCC3)c2)C2=C(CC(C)(C)CC2=O)NC2N=NC(C(F)(F)F)=C21 (some centres undefined) [US20250313563, Compound 819574] |
| 1 to 5 µM | 0.1 to 1 µM | CC1(C)CC(=O)C2=C(C1)NC1N=NC(C3CC(F)(F)C3)=C1[C@@]21COc2ccccc21 (some centres undefined) [US20250313563, Compound 127430] |
| 1 to 5 µM | > 5 µM | CC[C@]1(c2cccc(-c3cc(C)nn3C)c2)C2=C(CC(C)(C)CC2=O)NC2N=NC(C(F)(F)F)=C21 (some centres undefined) [US20250313563, Compound 947383] |
| < 0.1 µM | < 0.1 µM | CC1(C)CC(=O)C2=C(C1)NC1=C(CN=N1)C21COC2(CN(C(=O)C(F)(F)F)C2)C1 (centres undefined) [US20250313563, Compound 947280] |
| < 0.1 µM | < 0.1 µM | CCC1(c2cccc(-c3cn(C)nc3C)c2)C2=C(CC(C)(C)NC2=O)NC2N=NC(C)=C21 (centres undefined) [US20250313563, Compound 945460] |
| < 0.1 µM | 0.1 to 1 µM | CC[C@@]1(c2cccc(Oc3ncccn3)c2)C2=CN=NC2NC2=C1C(=O)NC(C)(C)C2 (some centres undefined) [US20250313563, Compound 949330] |
| < 0.1 µM | < 0.1 µM and 1 to 5 µM | Cc1cccc(S(=O)(=O)N2CC[C@]3(C2)C2=C(N=NC2)NC2=C3C(=O)CC(C)(C)C2)c1 [US20250313563, Compound 951864] |
| < 0.1 µM | < 0.1 µM | CC(C)c1nc(S(=O)(=O)N2CCC3(CC2)C2=C(N=NC2)NC2=C3C(=O)CC(C)(C)C2)cn1C [US20250313563, Compound 945663] |
| 0.1 to 1 µM | 1 to 5 µM | CC[C@@]1(c2cccc(-c3cnn4c3CCCC4)c2)C2=C(CC(C)(C)CC2=O)NC2N=NC(C)=C21 (some centres undefined) [US20250313563, Compound 913033] |
| 0.1 to 1 µM | 1 to 5 µM | CCC1(c2ccccc2)C2=C(N=NC2)NC2=C1C(=O)CC(C)(C(F)(F)F)C2 (centres undefined) [US20250313563, Compound 816796] |
| 0.1 to 1 µM | 1 to 5 µM | CC[C@@]1(c2ccccc2)C2=CN=NC2NC2=C1C(=O)[C@H](C)C[C@@H]2C (some centres undefined) [US20250313563, Compound 909217] |
| < 0.1 µM | < 0.1 µM | CC1(C)CC(=O)C2=C(C1)NC1=C(CN=N1)C21CCN(S(=O)(=O)c2cccc3ccncc23)CC1 [US20250313563, Compound 947901] |
| < 0.1 µM | 0.1 to 1 µM | Cc1ccc(C)c(S(=O)(=O)N2CCC3(CC2)C2=C(N=NC2)NC2=C3C(=O)CC(C)(C)C2)c1 [US20250313563, Compound 947471] |
| < 0.1 µM | < 0.1 µM | CC[C@@]1(c2cccc(-c3cnn(C)c3C)c2)C2=C(CC(C)(C)NC2=O)NC2N=NC(C(F)(F)F)=C21 (some centres undefined) [US20250313563, Compound 947819] |
| > 5 µM | > 5 µM | CC1(C)CC(=O)C2=C(C1)NC1=C(CN=N1)C21CN(CC2CCOCC2)C1 [US20250313563, Compound 943545] |
| 1 to 5 µM | > 5 µM | CC[C@@]1(c2cccc(Oc3ncccn3)c2)C2=C(CC(C)(C)NC2=O)NC2N=NC(Cl)=C21 (some centres undefined) [US20250313563, Compound 951605] |
| < 0.1 µM and 0.1 to 1 µM | < 0.1 µM and 1 to 5 µM | CC[C@]1(c2cccc(-c3ccnc4c3CCC4)c2)C2=CN=NC2NC2=C1C(=O)NC(C)(C)C2 (some centres undefined) [US20250313563, Compound 948313] |
| 0.1 to 1 µM | 1 to 5 µM | CC[C@]1(c2cccc(-c3cn(C)nc3C)c2)C2=C(CC(C)(C)NC2=O)NC2N=NC(C)=C21 (some centres undefined) [US20250313563, Compound 945996] |
| 0.1 to 1 µM | 0.1 to 1 µM | CC1(C)CC(=O)C2=C(C1)NC1=C(CN=N1)C21CCCCCC1 [US20250313563, Compound 883978] |
| < 0.1 µM | 0.1 to 1 µM | CC[C@]1(c2cccc(N(C)c3ccncc3)c2)C2=CN=NC2NC2=C1C(=O)CC(C)(C)C2 (some centres undefined) [US20250313563, Compound 874260] |
| > 5 µM | > 5 µM | CC1(C)CC(=O)C2=C(C1)NC1N=NC=C1C21CCCN(c2ccncc2)CC1 (centres undefined) [US20250313563, Compound 932633] |
| 1 to 5 µM | 1 to 5 µM | CC[C@]1(c2cccc(NS(C)(=O)=O)c2)C2=CN=NC2NC2=C1C(=O)CC(C)(C)C2 (some centres undefined) [US20250313563, Compound 927341] |
| 0.1 to 1 µM | 1 to 5 µM | CC[C@]1(c2cccc(-c3ccncc3C)c2)C2=CN=NC2NC2=C1C(=O)N[C@@]1(CCCOC1)C2 (some centres undefined) [US20250313563, Compound 947912] |
